Laboratory results reported in ChEMBL document CHEMBL5291721, “A preclinical secondary pharmacology resource illuminates target-adverse drug reaction associations of marketed drugs” (Nat Commun, 2023).

Assays:
[1] = molecular target: T1, Amine oxidase [flavin-containing] A (Homo sapiens, UniProt P21397); assay type: functional
T1 sequence (P21397 whole entry): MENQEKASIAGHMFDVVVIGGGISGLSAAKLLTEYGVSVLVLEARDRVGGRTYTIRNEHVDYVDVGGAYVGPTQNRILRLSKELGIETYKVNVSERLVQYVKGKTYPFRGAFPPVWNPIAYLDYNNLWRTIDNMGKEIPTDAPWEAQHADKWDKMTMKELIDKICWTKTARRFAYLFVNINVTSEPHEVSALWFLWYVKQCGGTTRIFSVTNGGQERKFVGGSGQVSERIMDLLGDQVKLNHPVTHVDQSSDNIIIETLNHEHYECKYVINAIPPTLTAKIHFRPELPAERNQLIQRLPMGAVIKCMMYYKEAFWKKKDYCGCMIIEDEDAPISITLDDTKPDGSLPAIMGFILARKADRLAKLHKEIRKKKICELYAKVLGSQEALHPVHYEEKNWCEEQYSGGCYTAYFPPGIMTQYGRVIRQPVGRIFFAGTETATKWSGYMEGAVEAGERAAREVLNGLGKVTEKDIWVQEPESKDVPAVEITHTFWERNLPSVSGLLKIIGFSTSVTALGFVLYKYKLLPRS

[2] = molecular target: T2, Endothelin-1 receptor (Homo sapiens, UniProt P25101)
T2 sequence (P25101 whole entry): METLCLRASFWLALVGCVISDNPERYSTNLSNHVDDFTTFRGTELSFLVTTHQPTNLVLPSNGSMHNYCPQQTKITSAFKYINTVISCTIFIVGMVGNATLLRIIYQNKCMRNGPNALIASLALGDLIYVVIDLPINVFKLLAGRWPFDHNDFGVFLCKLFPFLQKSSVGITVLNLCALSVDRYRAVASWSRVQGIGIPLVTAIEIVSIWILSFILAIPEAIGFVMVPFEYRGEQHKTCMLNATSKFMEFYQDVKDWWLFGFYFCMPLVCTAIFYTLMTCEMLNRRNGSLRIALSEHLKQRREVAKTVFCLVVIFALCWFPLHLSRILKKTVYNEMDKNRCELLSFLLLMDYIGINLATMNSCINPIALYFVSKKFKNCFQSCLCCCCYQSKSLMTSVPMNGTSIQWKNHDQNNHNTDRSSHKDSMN

[3] = molecular target: Beta-2 adrenergic receptor (Homo sapiens, UniProt P07550); assay type: functional, cell-based
Sequence of Beta-2 adrenergic receptor (P07550 whole entry): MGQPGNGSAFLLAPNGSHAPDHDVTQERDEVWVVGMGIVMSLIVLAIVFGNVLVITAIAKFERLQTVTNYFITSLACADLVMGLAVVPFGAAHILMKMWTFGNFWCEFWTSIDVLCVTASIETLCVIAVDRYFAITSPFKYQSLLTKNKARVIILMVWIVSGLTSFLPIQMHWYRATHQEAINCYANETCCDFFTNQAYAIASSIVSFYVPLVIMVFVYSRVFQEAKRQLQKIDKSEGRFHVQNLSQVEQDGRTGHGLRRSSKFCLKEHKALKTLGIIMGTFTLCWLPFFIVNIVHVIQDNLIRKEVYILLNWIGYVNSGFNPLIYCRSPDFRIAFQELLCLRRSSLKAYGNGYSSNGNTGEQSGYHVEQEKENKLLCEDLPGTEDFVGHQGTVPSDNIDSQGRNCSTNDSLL

[4] = molecular target: Gamma-aminobutyric acid receptor subunit alpha-1 (Rattus norvegicus, UniProt P62813)
Sequence of Gamma-aminobutyric acid receptor subunit alpha-1 (P62813 whole entry): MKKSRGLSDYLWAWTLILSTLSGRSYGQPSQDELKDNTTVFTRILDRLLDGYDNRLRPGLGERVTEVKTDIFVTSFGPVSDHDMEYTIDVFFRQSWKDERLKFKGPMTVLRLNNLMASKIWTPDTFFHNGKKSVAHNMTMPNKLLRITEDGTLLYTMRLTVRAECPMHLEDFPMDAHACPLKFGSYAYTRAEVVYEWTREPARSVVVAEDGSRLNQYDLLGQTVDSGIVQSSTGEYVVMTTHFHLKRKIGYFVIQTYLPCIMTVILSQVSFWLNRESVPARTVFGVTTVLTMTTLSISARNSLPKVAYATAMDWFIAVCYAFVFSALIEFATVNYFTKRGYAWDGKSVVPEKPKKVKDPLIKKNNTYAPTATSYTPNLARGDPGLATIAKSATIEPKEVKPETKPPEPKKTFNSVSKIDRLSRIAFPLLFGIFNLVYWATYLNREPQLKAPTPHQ

[5] = molecular target: T3, Thromboxane A2 receptor (Homo sapiens, UniProt P21731)
T3 sequence (P21731 whole entry): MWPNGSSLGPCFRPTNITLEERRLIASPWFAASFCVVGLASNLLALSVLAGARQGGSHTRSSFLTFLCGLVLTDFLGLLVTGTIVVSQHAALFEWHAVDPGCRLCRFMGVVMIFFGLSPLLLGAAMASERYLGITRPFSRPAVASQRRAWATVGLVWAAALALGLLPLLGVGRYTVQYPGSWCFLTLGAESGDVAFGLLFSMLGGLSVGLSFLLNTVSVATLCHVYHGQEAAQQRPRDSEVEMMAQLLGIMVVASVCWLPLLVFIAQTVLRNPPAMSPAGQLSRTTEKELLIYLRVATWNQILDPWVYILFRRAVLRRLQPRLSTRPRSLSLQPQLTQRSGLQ

[6] = molecular target: T4, Alpha-1A adrenergic receptor (Homo sapiens, UniProt P35348); assay type: functional, cell-based
T4 sequence (P35348 whole entry): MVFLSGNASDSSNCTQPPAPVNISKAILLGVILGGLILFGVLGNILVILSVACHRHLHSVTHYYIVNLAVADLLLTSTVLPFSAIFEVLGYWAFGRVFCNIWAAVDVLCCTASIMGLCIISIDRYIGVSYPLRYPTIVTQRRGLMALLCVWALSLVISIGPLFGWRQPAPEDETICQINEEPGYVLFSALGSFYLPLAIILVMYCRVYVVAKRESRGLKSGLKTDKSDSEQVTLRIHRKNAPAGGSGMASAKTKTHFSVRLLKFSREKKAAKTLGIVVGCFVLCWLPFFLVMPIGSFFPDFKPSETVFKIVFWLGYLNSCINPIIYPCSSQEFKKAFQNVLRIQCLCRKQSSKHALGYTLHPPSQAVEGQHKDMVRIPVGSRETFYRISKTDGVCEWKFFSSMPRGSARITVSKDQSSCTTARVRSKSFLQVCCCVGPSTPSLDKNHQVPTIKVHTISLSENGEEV

[7] = molecular target: Histamine H2 receptor (Homo sapiens, UniProt P25021); assay type: functional, cell-based
Sequence of Histamine H2 receptor (P25021 whole entry): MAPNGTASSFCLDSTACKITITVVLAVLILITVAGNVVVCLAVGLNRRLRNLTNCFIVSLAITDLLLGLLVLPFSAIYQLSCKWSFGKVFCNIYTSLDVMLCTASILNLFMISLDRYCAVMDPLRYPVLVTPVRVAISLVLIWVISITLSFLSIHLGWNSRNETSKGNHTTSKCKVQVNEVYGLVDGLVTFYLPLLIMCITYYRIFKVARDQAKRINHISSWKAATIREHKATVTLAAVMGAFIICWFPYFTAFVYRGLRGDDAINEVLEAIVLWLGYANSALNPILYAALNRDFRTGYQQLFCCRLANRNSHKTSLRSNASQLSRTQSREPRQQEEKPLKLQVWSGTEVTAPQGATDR

[8] = molecular target: T5, Estrogen receptor (Homo sapiens, UniProt P03372)
T5 sequence (P03372 whole entry): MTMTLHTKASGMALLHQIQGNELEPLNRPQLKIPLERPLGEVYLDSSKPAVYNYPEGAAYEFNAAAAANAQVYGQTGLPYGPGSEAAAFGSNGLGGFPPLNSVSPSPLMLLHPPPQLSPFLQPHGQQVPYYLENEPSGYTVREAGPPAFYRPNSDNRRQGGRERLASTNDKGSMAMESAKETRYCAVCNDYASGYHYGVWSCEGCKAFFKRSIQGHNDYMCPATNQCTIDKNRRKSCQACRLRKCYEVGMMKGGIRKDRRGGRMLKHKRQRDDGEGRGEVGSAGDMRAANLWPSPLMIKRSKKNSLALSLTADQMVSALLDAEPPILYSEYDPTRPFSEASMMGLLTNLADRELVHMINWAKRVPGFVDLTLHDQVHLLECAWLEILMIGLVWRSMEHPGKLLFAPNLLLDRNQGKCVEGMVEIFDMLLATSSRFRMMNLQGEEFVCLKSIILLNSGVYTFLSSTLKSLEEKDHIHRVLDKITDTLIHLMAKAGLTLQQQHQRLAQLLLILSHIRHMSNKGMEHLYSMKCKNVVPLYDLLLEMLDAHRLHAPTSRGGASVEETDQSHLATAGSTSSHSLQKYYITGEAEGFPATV
Further: assay procedure not described here.

SMILES: CCOC(=O)[C@H](CCc1ccccc1)N[C@@H](C)C(=O)N1Cc2ccccc2C[C@H]1C(=O)O
- AC50 [1]: > 30 µM
- AC50 [2]: > 30 µM
- AC50 [3]: > 30 µM
- AC50 [4]: > 10 µM
- AC50 [5]: > 30 µM
- AC50 [6]: > 30 µM
- AC50 [7]: > 10 µM
- AC50 [8]: > 30 µM

SMILES: CC(=O)Oc1ccccc1C(=O)O [ASPIRIN]
- AC50 [1]: > 30 µM
- AC50 [2]: > 30 µM
- AC50 [3]: > 30 µM
- AC50 [4]: > 10 µM
- AC50 [5]: > 30 µM
- AC50 [6]: > 30 µM
- AC50 [7]: > 10 µM
- AC50 [8]: > 30 µM

SMILES: O=C(Cc1cccs1)N[C@@H]1C(=O)N2C(C(=O)[O-])=C(C[n+]3ccccc3)CS[C@H]12 [CEPHALORIDINE]
- AC50 [1]: > 30 µM
- AC50 [3]: > 30 µM
- AC50 [4]: > 30 µM
- AC50 [6]: > 30 µM
- AC50 [7]: > 30 µM
- AC50 [8]: > 30 µM

SMILES: CN(C)CCCC1(c2ccc(F)cc2)OCc2cc(C#N)ccc21 (centres undefined) [CITALOPRAM]
- AC50 [1]: > 30 µM
- AC50 [2]: > 30 µM
- AC50 [3]: > 30 µM
- AC50 [4]: > 10 µM
- AC50 [5]: > 30 µM
- AC50 [8]: > 30 µM

SMILES: CC(C)/N=c1\cc2n(-c3ccc(Cl)cc3)c3ccccc3nc-2cc1Nc1ccc(Cl)cc1 [CLOFAZIMINE]
- AC50 [2]: > 30 µM
- AC50 [3]: > 30 µM
- AC50 [4]: 29 µM
- AC50 [5]: > 30 µM
- AC50 [6]: > 30 µM
- AC50 [7]: > 30 µM

SMILES: C[C@H](Nc1ncnc2[nH]cnc12)c1cc2cccc(Cl)c2c(=O)n1-c1ccccc1 [DUVELISIB]
- AC50 [1]: > 30 µM
- AC50 [2]: > 30 µM
- AC50 [3]: > 30 µM
- AC50 [6]: > 30 µM
- AC50 [8]: > 30 µM

SMILES: C[C@]12CCC(=O)C=C1CC[C@H]1[C@@H]3CC[C@](O)(C(=O)CO)[C@@]3(C)C[C@H](O)[C@@]12F [FLUDROCORTISONE]
- AC50 [2]: > 30 µM
- AC50 [3]: > 30 µM
- AC50 [4]: > 10 µM
- AC50 [5]: > 30 µM
- AC50 [6]: > 30 µM
- AC50 [7]: > 10 µM

SMILES: NCC1(CC(=O)O)CCCCC1 [GABAPENTIN]
- AC50 [1]: > 30 µM
- AC50 [2]: > 30 µM
- AC50 [3]: > 30 µM
- AC50 [4]: > 10 µM
- AC50 [5]: > 30 µM
- AC50 [6]: > 30 µM
- AC50 [7]: > 10 µM

SMILES: OCCOCCN1CCN(C(c2ccccc2)c2ccc(Cl)cc2)CC1 (centres undefined) [HYDROXYZINE]
- AC50 [2]: > 30 µM
- AC50 [3]: > 30 µM
- AC50 [4]: > 10 µM
- AC50 [5]: > 30 µM
- AC50 [6]: > 30 µM
- AC50 [7]: > 10 µM

SMILES: Nc1nnc(-c2cccc(Cl)c2Cl)c(N)n1 [LAMOTRIGINE]
- AC50 [2]: > 30 µM
- AC50 [3]: > 30 µM
- AC50 [4]: > 10 µM
- AC50 [5]: > 30 µM
- AC50 [6]: > 30 µM
- AC50 [7]: > 10 µM

SMILES: CC(=O)NC[C@H]1CN(c2ccc(N3CCOCC3)c(F)c2)C(=O)O1 [LINEZOLID]
- AC50 [2]: > 30 µM
- AC50 [3]: > 30 µM
- AC50 [4]: > 30 µM
- AC50 [5]: > 30 µM
- AC50 [6]: > 30 µM
- AC50 [7]: > 30 µM

SMILES: O=C1[C@@H]2[C@H]3CC[C@H](C3)[C@@H]2C(=O)N1C[C@@H]1CCCC[C@H]1CN1CCN(c2nsc3ccccc23)CC1 [LURASIDONE]
- AC50 [1]: > 30 µM
- AC50 [2]: > 30 µM
- AC50 [3]: > 30 µM
- AC50 [8]: > 30 µM

SMILES: CS(=O)(=O)Nc1ccc([N+](=O)[O-])cc1Oc1ccccc1 [NIMESULIDE]
- AC50 [1]: > 30 µM
- AC50 [2]: > 30 µM
- AC50 [3]: > 30 µM
- AC50 [4]: > 30 µM
- AC50 [5]: 27 µM
- AC50 [6]: > 30 µM
- AC50 [7]: > 30 µM

SMILES: C#CCN(C)Cc1ccccc1 [PARGYLINE]
- AC50 [3]: > 30 µM
- AC50 [4]: > 30 µM
- AC50 [6]: > 30 µM
- AC50 [7]: > 30 µM
- AC50 [8]: > 30 µM

SMILES: Cc1c(C)c2c(c(C)c1O)CCC(C)(COc1ccc(CC3SC(=O)NC3=O)cc1)O2 (centres undefined) [TROGLITAZONE]
- AC50 [1]: > 30 µM
- AC50 [2]: > 30 µM
- AC50 [3]: > 30 µM
- AC50 [4]: > 30 µM
- AC50 [5]: > 30 µM
- AC50 [6]: > 30 µM
- AC50 [7]: > 30 µM
- AC50 [8]: > 30 µM
